Laboratory results from doi:10.1101/2025.02.17.638454, “Synergistic RAS-MAPK and AKT Activation in MYC-Driven Tumors via Adjacent PVT1 Rearrangements” (bioRxiv, 2025).
No end group written: not given here.

Key:
[1] = system: COLO-320DM cells; test: Proliferation assay COLO-320DM; assay type: cell-based, human; conditions: COLO320DM
[2] = system: MYC; test: Western blot of MYC in COLO-320DM; assay type: cell-based, human; conditions: COLO320DM
Experimental: (§1) For whole-cell lysate, the cell pellet was resuspended in RIPA buffer (Cell Signaling Technologies, Danvers, MA) supplemented with a protease inhibitor cocktail (Cell Signaling Technologies) and incubated on ice for 20 minutes. The lysate was then centrifuged at 14,000 revolutions/minute for 10 minutes at 4°C, and the supernatant was harvested. Protein concentration was quantified by BCA Protein Assay Kit (Thermo Fisher Scientific) as per kit protocol. Next, 20 μg of whole-cell lysate was electrophoresed on a 4%–20% gradient polyacrylamide gel with SDS (Bio-Rad, Hercules, CA) and electroblotted onto polyvinylidene difluoride membranes (Bio-Rad). Membranes were blocked in Tris-buffered saline with 5% nonfat milk and 0.1% Tween and probed with antibodies. Bound proteins were detected with horseradish-peroxidase–conjugated secondary antibodies (Cell Signaling Technologies) and SuperSignal West Femto (Thermo Fisher Scientific). […]
The HNB ORF and eGFP (control) were cloned in an inducible lentivirus expression, TRE-gateway plasmid (pLIX_403, Addgene, #41395). […] The protein lysates were collected and quantified using the previously described protocol. […] Bound proteins were detected with horseradish-peroxidase–conjugated secondary antibodies (Cell Signaling Technologies) and SuperSignal West Femto (Thermo Fisher Scientific). […]

[3] = system: MYC; test: Western blot of MYC in D458; assay type: cell-based, human
Experimental: For whole-cell lysate, the cell pellet was resuspended in RIPA buffer (Cell Signaling Technologies, Danvers, MA) supplemented with a protease inhibitor cocktail (Cell Signaling Technologies) and incubated on ice for 20 minutes. The lysate was then centrifuged at 14,000 revolutions/minute for 10 minutes at 4°C, and the supernatant was harvested. Protein concentration was quantified by BCA Protein Assay Kit (Thermo Fisher Scientific) as per kit protocol. Next, 20 μg of whole-cell lysate was electrophoresed on a 4%–20% gradient polyacrylamide gel with SDS (Bio-Rad, Hercules, CA) and electroblotted onto polyvinylidene difluoride membranes (Bio-Rad). Membranes were blocked in Tris-buffered saline with 5% nonfat milk and 0.1% Tween and probed with antibodies. Bound proteins were detected with horseradish-peroxidase–conjugated secondary antibodies (Cell Signaling Technologies) and SuperSignal West Femto (Thermo Fisher Scientific). Antibodies used were anti-c-MYC (Cell Signaling Technology, 5605, anti-Phospho-c-MYC (Ser62) (Cell Signaling Technology, 13748), anti-β ACTIN (Cell Signaling Technology, 8457), anti-Phospho-p44/42 (Erk1/2) (Thr202/Tyr204) (Cell Signaling Technology, 4370), anti-p44/42 (Erk1/2) (Cell Signaling Technology, 4695), anti-Phospho-MEK1/2 (Ser217/221) (Cell Signaling Technology, 9154), anti-MEK1/2 (Cell Signaling Technology, 9122), anti-Phospho-p90RSK (Ser380) (Cell Signaling Technology, 11989), anti-RSK1/RSK2/RSK3 (Cell Signaling Technology, 9355), Anti-Rabbit IgG, HRP-linked Antibody (Cell Signaling Technology, 7074). Anti-FFX (Firefox) monoclonal antibodies were custom produced by Proteintech using FFX residues 13–104 as epitope.
The HNB ORF and eGFP (control) were cloned in an inducible lentivirus expression, TRE-gateway plasmid (pLIX_403, Addgene, #41395). Lentivirus was produced in HEK293T cells using the protocol described above. D458, NCI-H1792 and COLO 320DM cells were transfected with inducible HNB lentivirus and selected with 1 μg/mL concentration of Puromycin. Selected cells were seeded at a concentration of 4 × 10^5 cells per well. After 24 hours of seeding, the cells were treated with 1 μg/mL Doxycycline for 48 hours. The cells were then lysed using RIPA buffer and 1X protease inhibitor cocktail. The protein lysates were collected and quantified using the previously described protocol. 20 μg of whole-cell lysate was electrophoresed on a 4%–20% gradient polyacrylamide gel with SDS (Bio-Rad, Hercules, CA) and electroblotted onto polyvinylidene difluoride membranes (Bio-Rad). […] Bound proteins were detected with horseradish-peroxidase–conjugated secondary antibodies (Cell Signaling Technologies) and SuperSignal West Femto (Thermo Fisher Scientific). […]

[4] = system: HNB; test: ITC of HNB into assay buffer (self-interaction, baseline control); assay type: binding; conditions: 500 µM HNB into ITC assay buffer, 25°C
Experimental: Isothermal titration calorimetry (ITC) measures the change in temperature when two or more biomolecules bind to each other in a solution. The assay provides the binding affinity of ligands to proteins and the entropy or enthalpy of the reaction. Recombinant KRAS protein (#ab156968, Abcam) was dialyzed into the ITC assay buffer (20mM Tris pH 8.0, 100mM NaCl, 5mM Beta-mercaptoethanol) and concentrated to about 100 μM. During ITC titration twenty 6 μl injections (with intervals of 150 seconds) of 500μM HNB were made into the ITC cell containing 93 μM KRAS. Titration of 500μM HNB into the ITC assay buffer under the same conditions was used as the baseline control. ITC experiments were performed using Affinity ITC instrument (TA Instruments) at 25°C. The data was fitted and analyzed using NanoAnalyze software provided by TA Instruments. […]
bioRxiv preprint doi: https://doi.org/10.1101/2025.02.17.638454; this version posted February 22, 2025. The copyright holder for this preprint (which was not certified by peer review) is the author/funder, who has granted bioRxiv a license to display the preprint in perpetuity. It is made available under aCC-BY 4.0 International license. […]

[5] = system: D458 cells; test: Proliferation assay D458; assay type: cell-based, human
[6] = system: MYC; test: Western blot of MYC in SK-PN-DW; assay type: cell-based, human; conditions: si.CircPVT1 vs si.Ctrl, n=3, unpaired t test, 0.0049
Experimental: as §1

| Substance | cellular proliferation ([1]; induction of HNB (-/+ Dox), P=0.0002) | MYC protein level ([2]; induction of HNB (-/+ Dox)) | MYC protein level ([3]; D458, induction of HNB (-/+ Dox)) | HNB self-interaction [4] | cellular proliferation ([5]; D458, induction of HNB or HNB mutant (+/- Dox)) | cellular proliferation ([1]; si.CircPVT1 vs si.Ctrl, n=3, two-way ANOVA, P<0.0001) | MYC protein [6] | MYC protein ([2]; si.CircPVT1 vs si.Ctrl, n=3, unpaired t test, <0.0001) | MYC protein ([3]; D458, si.CircPVT1 vs si.Ctrl, n=3, unpaired t test) | cellular proliferation ([5]; D458, transfection with si.CircPVT1 vs si.Ctrl, n=3, two-way ANOVA) |
| --- | --- | --- | --- | --- | --- | --- | --- | --- | --- | --- |
| MKTQLGAVKGFLHV [HNB] | significantly reduced cellular proliferation | significantly reduced MYC expression at the mRNA as well as the protein levels | significantly reduced MYC expression at the mRNA as well as the protein levels | not detected | significantly reduced cellular proliferation | – | – | – | – | – |
| si.CircPVT1: siRNA targeting the junction sequence of CircPVT1, 5’-UGGGCUUGAGGCCUGAUCUUU-3’ (other strand not given here) | – | – | – | – | – | reduced cellular proliferation | significant reduction of MYC protein | significant reduction of MYC protein | significant reduction of MYC protein | reduced cellular proliferation |
